Where “and” joins values, the source holds several entries; their conditions need not be identical. Equal entries are not always repeated. Where two headings read alike, the source gives them in different places.
What was measured:
[1] = biological target: T1, Neprilysin (NEP) (Homo sapiens, UniProt P08473); assay: Neprilysin inhibition assay (Mca-[…](Dpn) FRET substrate); format: biochemical
T1 construct: purchased Enzo Life Sciences
Method: Single concentration studies at 10 μM: Neprilysin inhibition assays were performed as described previously. The substrate Mca-[…](Dpn) and endopeptidase NEP were purchased from Enzo Life Sciences. […] Plate was mixed with a plate shaker at 1500 rpm for 30 seconds. The reaction was started with the addition of 6 μM of the FRET substrate and mixed for another 30 seconds at 1500 rpm. Mca fluorescence is quenched by Dpn until cleavage at Phe by NEP. The accumulation of the Mca was measured by exciting at 320 nm and reading the fluorescence at 405 nm on a Molecular Devices M5e plate reader for 40 minutes at room temperature. Percent inhibition is calculated in GraphPad Prism software using slopes in the linear range for each inhibitor at 10 μM.
Dose-Response Studies for NEP: Neprilysin inhibition assays were performed as described previously. The substrate Mca-[…](Dpn) and endopeptidase NEP were purchased from Enzo Life Sciences. Briefly, 0.5 nM NEP was incubated with 0.5 μL inhibitor. Compounds were tested at 3× dilutions from 100 μM final concentration in 50 mM HEPES pH 6.5 in 50 μL total volume in a black 384-well plate. Plate was mixed with a plate shaker at 1500 rpm for 30 seconds. The reaction was started with the addition of 6 μM of the FRET substrate and mixed for another 30 seconds at 1500 rpm. Mca fluorescence is quenched by Dpn until cleavage at Phe by NEP. The accumulation of the Mca was measured by exciting at 320 nm and reading the fluorescence at 405 nm on a Molecular Devices M5e plate reader for 40 minutes at room temperature. Steady state velocities were used to determine IC50 values by fitting the velocities vs. inhibitor concentration to the sigmoidal concentration-response curve (variable slope) using GraphPad Prism.

[2] = test system: mice; assay: Acetic acid writhing test (persistent pain); format: in vivo, mouse
Method: Acclimatized animals are treated systemically with a dilute solution of acetic acid inducing abdominal constrictions (writhes) or extension of hind limbs in the animal. The writhes and extensions are counted within a predetermined period of time to analyze the efficacy of the test compound. […] Percent inhibition is calculated according to the equation: % Inhibition=[(Mean number of writhes for control−Mean number of writhes for test compound)/(Mean number of writhes for control)]×100.
The mice were given vehicle or test compounds 15 min before acetic acid administration. Subsequently, all the groups of mice were injected with 1% (10 mL/kg) acetic acid solution intraperitoneally to induce writhing. The animals display characteristic movements such as extension of hind limb, abdominal constriction, and trunk twisting movement called writhing. The numbers of writhing episodes in 30 min period beginning at the time of the acetic acid administration were counted. […] APAP was dissolved in saline. Both test compounds were delivered intraperitoneally to the test animals.

[3] = test system: mice; assay: Formalin test (persistent pain); format: in vivo, mouse
Method: The formalin test is another variant model for analyzing pain-relieving properties of test compounds in pain produced by inflammation or by injury to peripheral tissue. It is divergent from the acetic acid writhing assay in producing a biphasic response. These pharmacologically distinct phases are generally observed from 1 to 10 minutes, and 15 to 60 minutes post injection. While phase-I is caused by a rapid relay response in pain fibers, sensitization due to peripheral inflammation results in phase-II response in this model.
Mice were injected with 20 μl of 2% buffered formalin solution into the intraplantar region of hind paw of mice and the total time spent in licking and biting of the formalin-treated paw by the animals over the course of 30 min (phase I, acute pain behavior, 0-5 min; phase II, chronic pain behavior, 15-30 min) was recorded. Test compounds were injected 15 min prior to formalin administration. The pain response time (licking time) was recorded for every 5-min period during the 30-min recording for each mouse. The test compounds were dissolved in 50% saline in DMSO solution and delivered systemically

[4] = test system: mice; assay: Combination therapy with morphine, isobolographic analysis in tail-flick assay; details: for Dose Reduction Index (DRI) Tosedostat: in combination with morphine; for ED50: Mus musculus, ip

T1 sequence (P08473 whole entry, species assumed): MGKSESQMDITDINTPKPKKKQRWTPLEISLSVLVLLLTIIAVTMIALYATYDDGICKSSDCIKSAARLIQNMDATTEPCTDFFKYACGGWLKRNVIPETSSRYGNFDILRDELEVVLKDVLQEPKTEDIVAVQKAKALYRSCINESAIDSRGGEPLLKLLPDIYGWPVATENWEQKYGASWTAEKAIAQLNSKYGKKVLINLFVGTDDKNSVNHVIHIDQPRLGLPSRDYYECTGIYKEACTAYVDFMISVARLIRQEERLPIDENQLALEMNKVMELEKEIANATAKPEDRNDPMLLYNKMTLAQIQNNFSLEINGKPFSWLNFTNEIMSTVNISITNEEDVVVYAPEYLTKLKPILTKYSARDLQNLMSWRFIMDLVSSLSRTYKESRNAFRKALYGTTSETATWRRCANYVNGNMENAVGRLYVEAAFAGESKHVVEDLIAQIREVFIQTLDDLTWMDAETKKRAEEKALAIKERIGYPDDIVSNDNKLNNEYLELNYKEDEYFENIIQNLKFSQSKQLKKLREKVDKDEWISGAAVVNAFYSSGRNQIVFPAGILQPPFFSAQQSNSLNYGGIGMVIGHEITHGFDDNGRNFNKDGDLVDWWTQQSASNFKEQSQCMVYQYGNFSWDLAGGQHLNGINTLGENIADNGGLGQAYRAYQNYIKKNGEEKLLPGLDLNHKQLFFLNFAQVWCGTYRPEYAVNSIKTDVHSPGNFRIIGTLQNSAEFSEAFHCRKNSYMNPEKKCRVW

CC(C)C[C@@H](C(=O)N[C@H](C(=O)OC1CCCC1)c1ccccc1)[C@H](O)C(=O)NO [Tosedostat]
IC50 ([1]; dose response, 3x dilutions from 100 μM): 900 nM and 890 nM | inhibition at 10 µM ([1]; inhibitor 10 μM, read-out: NEP @ 10 μM (percent inhibition)): 79% | dosage required for analgesic effect equivalent to 200 mg/Kg APAP ([2]; i.p.): 1 mg/kg | inhibition of writhings ([2]; i.p. 50 mg/Kg): > 90% | attenuation of writhing episodes compared to control groups ([2]; i.p., 30-minute count after acetic acid): significant attenuation of writhing episodes in a dose-dependent manner | phase-I response ([3]; i.p.): dose-dependent response | phase-II nociceptive action of formalin ([3]; i.p., dosages as low as 1 mg/Kg): completely suppressed | potency in comparison with APAP ([3]; same assay): significantly advantageous in potency | Dose Reduction Index (DRI) Tosedostat ([4]; 15 min): 2.52 | Dose Reduction Index (DRI) Tosedostat ([4]; 30 min): 1.91 | Dose Reduction Index (DRI) Tosedostat ([4]; 45 min): 1.79 | Dose Reduction Index (DRI) Tosedostat ([4]; 60 min): 2.21 | ED50 ([4]; 0.25 h, read-out: Tosedostat ED50 (±SEM)): 89 ± 109 mg/kg | ED50 ([4]; 0.5 h, read-out: Tosedostat ED50 (±SEM)): 85.8 ± 132 mg/kg | ED50 ([4]; 0.75 h, read-out: Tosedostat ED50 (±SEM)): 71.5 ± 47.6 mg/kg | ED50 ([4]; 1 h, read-out: ED50, given alone): 58.1 to 82 mg/kg | ED50 ([4]; 1 h, read-out: Tosedostat ED50 (±SEM)): 97.3 ± 33.6 mg/kg

— patent US10925851B2 (Regents of the University of Minnesota, priority 2018, dated 2021)
